Measurements as given in patent publication US7202270B2, “Convenient stable non-hygroscopic crystalline solid forms of racemic and chiral LA-plus salts: process for their manufacture and uses” (priority 2003, dated 2007).
Where a name gives a salt, the structure may show the parent alone.

What was measured:
[1] = Hygroscopicity of the solid salt; type: physicochemical; conditions: solid salt form
[2] = Antioxidant assay by DPPH radical scavenging activity; type: biochemical
Tyrosinase = test: Activity on Tyrosinase (inhibition); type: biochemical
From the text: Tyrosinase inhibition is one of the established in vitro methods of evaluating the skin fairness property.

Collagenase = Collagenase inhibition; type: biochemical
Elastase = Elastase inhibition; type: biochemical
Propionibacterium acnes = test: Inhibition of P. acnes (zone of inhibition); type: cell-based; conditions: for Zone of inhibition: P. acnes
Solubility data = type: physicochemical; conditions: Results in gm/dl; 35 to 40° C.
Description: Results in gm/dl; tests were done at 35 to 40° C. temperature.

[3] = Absence of sun light, Conc. 6.6 mg
[4] = Exposure to sun light for 5 minutes, Conc. 55 μg

SMILES | melting point | IC50 for Collagenase (Collagenase) | IC50 for Elastase (Elastase) | Minimum concentration showing inhibition of P. acnes (Propionibacterium acnes) | Zone of inhibition (Propionibacterium acnes; Conc. of the sample 0.5%) | Zone of inhibition (Propionibacterium acnes; Conc. of the sample 1%) | Zone of inhibition (Propionibacterium acnes; Conc. of the sample 2%) | Zone of inhibition (Propionibacterium acnes; Conc. of the sample 5%) | Zone of inhibition (Propionibacterium acnes; Conc. of the sample 10%) | Solubility, ETHANOL (95%) (Solubility data) | Solubility, PROPYLENE GLYCOL (Solubility data) | Solubility, WATER (D. D.) (Solubility data) | % Scavenging (DPPH) [2, 4] | Tyrosinase % Inhibition (Tyrosinase; Conc. 120 μg) | further results
CN(C)CCNC(=O)CCCCC1CCSS1 (racemic) (as salt: maleate) [LA Plus maleate, (±)-Maleate salt of N-[2-(dimethylamino)ethyl]-1,2-dithiolane-3-pentanamide] | 125 to 127 °C |  |  |  |  |  |  |  |  |  |  |  |  |  | 
CN(C)CCNC(=O)CCCCC1CCSS1.Cl (racemic) [(±)-LA-Plus hydrochloride, N-[2-(dimethylamino)ethyl]-1,2-dithiolane-3-pentanamide monohydrochloride] |  |  |  |  |  |  |  |  |  |  |  |  |  |  | Hygroscopicity [1]: hygroscopic
O=C(O)CCCCC1CCSS1 (racemic) [α-Lipoic acid, Alpha Lipoic acid, reference compound] |  | 1600 µg/mL | 1400 µg/mL | 5% | 0 mm | 0 mm | 0 mm | 7 mm | 8 mm |  |  |  |  |  | % Scavenging (DPPH) ([2]; Absence of sun light, Conc. 6 mg): 50%; % Scavenging (DPPH) ([2]; Exposure to sun light for 5 minutes, Conc. 45 μg): 50%; Tyrosinase % Inhibition (Tyrosinase; Conc. 100 μg): 51%
CN(C)CCNC(=O)CCCCC1CCSS1 (racemic) [LA Plus maleate, (±)-Maleate salt of N-[2-(dimethylamino)ethyl]-1,2-dithiolane-3-pentanamide] |  | 1600 µg/mL | 1400 µg/mL | 1.0% | 0 mm | 7 mm | 8 mm | 9 mm | 11 mm | 7.35% | 13% | 60% | 53% | 58% | % Scavenging (DPPH) [2, 3]: 54%
CN(C)CCNC(=O)CCCCC1CCSS1.O=C(O)/C=C/C(=O)O (racemic) [LA Plus fumarate, (±)-Fumarate salt of N-[2-(dimethylamino)ethyl]-1,2-dithiolane-3-pentanamide] | 76 to 78 °C | 1600 µg/mL | 1400 µg/mL | 2% | 0 mm | 0 mm | 7 mm | 8 mm | 10 mm | 51% | 23% | 100% | 50% | 53% | % Scavenging (DPPH) ([2]; Absence of sun light, Conc. 6.2 mg): 57%
O=C1O[C@H]([C@@H](O)CO)C(O)=C1O [Ascorbic acid, reference compound] |  |  |  |  |  |  |  |  |  |  |  |  |  |  | % Scavenging (DPPH) ([2]; Absence of sun light, Conc. 6 μg): 71%; % Scavenging (DPPH) ([2]; Exposure to sun light for 5 minutes, Conc. 6 μg): 59%
CN(C)CCNC(=O)CCCCC1CCSS1.O=C(O)/C=C\C(=O)O (stereo not drawn) [R(+)LA Plus maleate, R-(+)-Maleate salt of N-[2-(dimethylamino)ethyl]-1,2-dithiolane-3-pentanamide] | 125 to 127 °C | 1600 µg/mL | 1400 µg/mL | 1.0% | 0 mm | 8 mm | 10 mm | 12 mm | 15 mm | 6.84% | 10% | 60% | 47% | 58.6% | % Scavenging (DPPH) [2, 3]: 49%
CCC[C@@H]1C[C@@H](C(=O)N[C@@H]([C@H]2O[C@H](SC)[C@H](O)[C@@H](O)[C@H]2O)[C@H](C)Cl)N(C)C1 [Clindamycin, reference compound] |  |  |  |  | 0 mm | 7 mm | 9 mm | 15 mm | 20 mm |  |  |  |  |  | 
